These results are taken from US20240239806A1, “COMPOUNDS, COMPOSITIONS AND METHODS OF TREATING DISORDERS” (Chengdu Anticancer Bioscience, Ltd., priority 2021, published 2024).

Like-named read-outs stand apart in the source and are kept apart here.

Type in all cases: cell-based
Test [1] has as its system MDA-MB-231. Kind of test: MECP in cancer cell line. As to conditions: Homo sapiens. How it is done:
(§1) Six lung cancer cell lines (NCI-H23, NCI-H460, NCI-H596, NCI-H2170, Calu-6 and A549), two colon cancer cell lines (HCT116 and SW460), one breast cancer cell line MDA-MB-231, one gastric cancer cell line NCI-N87, one prostate cancer cell line DU145, one cervical cancer cell line Hela, and one glioblastoma cell line T98G were obtained from ATCC. The T2 HCC cell line was derived from a mouse liver cancer model initiated by a transgene of MYC. All cell lines were cultured in DMEM (Gibco, Cleveland, TN, USA) supplemented with 5% fetal bovine serum (Gibco), penicillin (100 U/mL)—streptomycin (100 μg/mL) (Gibco, Cat. No. 15140-122), 2 mM L-glutamine (Gibco, 200 mM solution, Cat. No. 25030081), and 1 mM sodium pyruvate (Gibco, 100 mM solution, Cat. No. 11360070) at 37° C. in a humidified incubator that was maintained at 5% CO2.
(§2) We have previously developed a mechanism-informed phenotypic screening assay to identify novel antimitotic agents. Equipped with a prior understanding of the versatile functions of the chromosomal passenger protein (CPP) complex in orchestrating karyokinesis and cytokinesis, the screening assay is to score for phenotypes typically seen when the CPP complex is disabled. Specifically, the parameters for a positive hit are a temporary elevation of mitotic index (MI) at 24 hours of drug treatment and an accumulation of polyploid cells at 48 hours of drug treatment, indicative of mitotic arrest and cytokinetic failure respectively. These parameters exclude compounds that elicit only a prolonged arrest of cells in mitosis, a phenotype typically provoked by spindle toxins. The screening procedure is briefly summarized here. RPEMYC^H2B-GFP cells engineered to express a Histone 2B-EGFP fusion protein were passaged as batches of 96-well plates, 18-24 hours before exposure to the chemical compounds of the present disclosure at concentrations from 1 nM to 30 μM. At 24, 48 or 72 hours after initiation of treatment, cells were analyzed for either an arrest in mitosis or a change in DNA content by GE IN-Cell Analyzer 2000. As set forth in Table 2 below, a value of greater than or equal to 1 nM and less than or equal to 1.0 μM is marked “A”; a value greater than 1.00 μM and less than or equal to 10.0 μM is marked “B”; a value greater than 10.0 μM and less than or equal to 30.0 μM is marked “C”; and a value greater than 30.0 μM is marked “D.”

In test [2] the test system is SW480. The test is described as follows: MECP in cancer cell line. As to conditions: Homo sapiens. Here is the method: as §1, §2
For test [3], the system named is A549. Kind of test: MECP in cancer cell line. As to conditions: Homo sapiens. Here is the method: as §1, §2
The subject of test [4] is HCT116. The test is described as follows: MECP in cancer cell line. The note with it: Homo sapiens, HCT-116. Here is the method: as §1, §2
The subject of test [5] is Hela. The test is described as follows: MECP in cancer cell line. The note with it: Homo sapiens. Here is the method:
as §1, §2

Test [6] concerns T2 HCC. Kind of test: MECP in cancer cell line. As to conditions: Mus musculus. How it is done: as §1, §2
The test system of another test is RPEMYC^H2B-GFP cells. The test is described as follows: Phenotypic screening assay (mitotic arrest, polyploidy). The note with it: 1 nM to 30 μM; for IC50: read-out: Proliferative arrest (>50%). The gist of the method:
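RPE cells expressing MYC and H2B-EGFP treated with compound at 1 nM–30 μM; mitotic index scored at 24 h and polyploidy (DNA content) at 48 h by automated imaging, with reads at 24, 48 or 72 h. Hits show transient mitotic arrest followed by polyploid accumulation.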

Test [7] has as its system NCI-N87. Kind of test: MTT assay of cellular proliferation. The note with it: Homo sapiens, 50% inhibition of cellular proliferation. How it is done: as §1
(§3) The MTT assay measures cellular metabolic activity as a proxy for cell viability and involves the conversion of the water-soluble yellow dye MTT [3-(4,5-dimethylthiazol-2-yl)-2,5-diphenyltetrazolium bromide] into an insoluble purple formazan by the action of mitochondrial reductase. Formazan is then solubilized and its concentration is determined by measuring the optical density (OD) value at a wavelength of 570 nm. The value is in proportional to the number of live cells with excellent linearity up to ˜10^6 cells per well. The MTT assay was used to determine the EC50 value, the concentration of a compound that leads to 50% inhibition of cellular proliferation. Briefly, cells were split when growing to the mid-Log phase. Cells in 100 μL of culture medium were seeded into each well of 96-well microplates and cultivated for 15-24 hours to reach a confluence of 20-30% and were then exposed to drugs at concentrations ranging from 1 nM to 30 μM. At the endpoint, 20 μL of a MTT stock solution in DMSO (5 mg/mL) was added to each well that contains 100 μL of DMEM. The microplates were left in the cell culture incubator for 3-4 h before subjected to solubilization and determination of formazan at A570 in a microplate reader (BioTek ELX808iu). […] Therefore, these compounds might hold a broad utility in the treatment of a large variety of human malignancies.

Test [8] deals with NCI-H23. The test is described as follows: MTT assay of cellular proliferation. The note with it: Homo sapiens, 50% inhibition of cellular proliferation. Here is the method:
as §1, §3

For test [9], the system named is MDA-MB-231. The test is described as follows: MTT assay of cellular proliferation. As to conditions: Homo sapiens; MDA-MB-231, MTT, 50% inhibition of cellular proliferation. Here is the method: as §1, §3
Test [10] concerns SW480. The test is described as follows: MTT assay of cellular proliferation. The note with it: Homo sapiens, 50% inhibition of cellular proliferation. Here is the method: as §1, §3
The subject of test [11] is A549. Kind of test: MTT assay of cellular proliferation. As to conditions: Homo sapiens, 50% inhibition of cellular proliferation. How it is done:
as §1, §3

For test [12], the system named is HCT116. Kind of test: MTT assay of cellular proliferation. The note with it: Homo sapiens, HCT-116, 50% inhibition of cellular proliferation. Here is the method: as §1, §3
Test [13] deals with Hela. Kind of test: MTT assay of cellular proliferation. As to conditions: Homo sapiens, 50% inhibition of cellular proliferation. How it is done:
as §1, §3

For test [14], the system named is T2 HCC. Kind of test: MTT assay of cellular proliferation. As to conditions: Mus musculus, 50% inhibition of cellular proliferation. How it is done:
as §1, §3

The subject of test [15] is NCI-N87. The test is described as follows: MECP in cancer cell line. As to conditions: Homo sapiens. How it is done: as §1, with “CO2. […]” for “CO2.”
Test [16] concerns NCI-H23. Kind of test: MECP in cancer cell line. As to conditions: Homo sapiens. How it is done: as §1, with “CO2. […]” for “CO2.”
The mark [17] stands for this setting: read-out: Min. Effective conc. for Polyploidy (≥5%).

For `COC(=O)c1cc2c(Oc3cc(OC)cc(-n4cccn4)c3)ccnc2cc1OC` [Compound 32, methyl 7-methoxy-4-(3-methoxy-5-(1H-pyrazol-1-yl)phenoxy)quinoline-6-carboxylate], the minimal effective concentration fell in the range of 1 to 10 µM in the test with MDA-MB-231 [1]; 0.001 to 1 µM with SW480 [2]; 0.001 to 1 µM with A549 [3]; 0.001 to 1 µM with HCT116 [4]; 0.001 to 1 µM in the test on Hela [5]; 0.001 to 1 µM in the test on T2 HCC [6]. In addition, the minimal effective concentration in the test on RPEMYC^H2B-GFP cells (setting [17]) is 0.001 to 1 µM; in the test with RPEMYC^H2B-GFP cells (read-out: Mitotic Arrest (≥5%)) it was 0.001 to 1 µM; with NCI-N87 [15], 1 to 10 µM; in the test with NCI-H23 [16], 0.001 to 1 µM. For the same molecule, the IC50 with RPEMYC^H2B-GFP cells fell in the range of 1 to 1000 nM. Moreover, the half-maximal effective concentration (EC50) fell in the range of 1000 to 10000 nM with NCI-N87 [7]; 1 to 1000 nM in the test on NCI-H23 [8]; 1 to 1000 nM in the test on MDA-MB-231 [9]; 1000 to 10000 nM in the test with SW480 [10]; 1000 to 10000 nM in the test with A549 [11]; 1000 to 10000 nM in the test on HCT116 [12]. For the same molecule, the half-maximal effective concentration (EC50) in the test on Hela [13] lay within 1 to 1000 nM; in the test on T2 HCC [14], 1000 to 10000 nM.
On to `COc1cc(Oc2ncnc3cc[nH]c23)cc(-n2cccn2)c1` [Compound 35, 4-(3-methoxy-5-(1H-pyrazol-1-yl)phenoxy)-5H-pyrrolo[3,2-d]pyrimidine], for which the minimal effective concentration in the test on MDA-MB-231 [1], in the test with SW480 [2], in the test on A549 [3], in the test with HCT116 [4], with Hela [5] and in the test with T2 HCC [6] was 0.001 to 1 µM in each case. For the same molecule, the minimal effective concentration in the test with RPEMYC^H2B-GFP cells (setting [17]), in the test with RPEMYC^H2B-GFP cells (read-out: Mitotic Arrest (≥5%)), with NCI-N87 [15] and in the test on NCI-H23 [16] was 0.001 to 1 µM in each case. For the same molecule, in the test with RPEMYC^H2B-GFP cells, the IC50 lay within 1 to 1000 nM. Moreover, the half-maximal effective concentration (EC50) with NCI-N87 [7], with NCI-H23 [8], in the test on MDA-MB-231 [9], in the test on SW480 [10], in the test on A549 [11] and in the test on HCT116 [12] was 1 to 1000 nM throughout. The EC50 in the test with Hela [13] and in the test on T2 HCC [14] was 1 to 1000 nM in each case.
For the molecule `COc1cc(Oc2ncnc3ccsc23)cc(-n2cccn2)c1` [Compound 38, 4-(3-methoxy-5-(1H-pyrazol-1-yl)phenoxy)thieno[3,2-d]pyrimidine], the minimal effective concentration in the test with MDA-MB-231 [1], with SW480 [2], in the test on A549 [3], in the test with HCT116 [4], with Hela [5] and in the test with T2 HCC [6] was 0.001 to 1 µM throughout. Further, the minimal effective concentration in the test on RPEMYC^H2B-GFP cells (setting [17]), with RPEMYC^H2B-GFP cells (read-out: Mitotic Arrest (≥5%)), with NCI-N87 [15] and with NCI-H23 [16] was 0.001 to 1 µM throughout. Further, the IC50 with RPEMYC^H2B-GFP cells fell in the range of 1 to 1000 nM. The EC50 with NCI-N87 [7], with NCI-H23 [8], in the test on MDA-MB-231 [9], in the test with SW480 [10], in the test on A549 [11] and with HCT116 [12] was 1 to 1000 nM each time. For the same molecule, the EC50 in the test with Hela [13] and in the test on T2 HCC [14] was 1 to 1000 nM each time.
In the case of `COC(=O)c1ccc2nccc(Oc3cc(NC(C)=O)cc(OC)c3)c2c1` [Compound 42, methyl 4-(3-acetamido-5-methoxyphenoxy)quinoline-6-carboxylate], the minimal effective concentration in the test on MDA-MB-231 [1], in the test on SW480 [2], in the test with A549 [3], in the test with HCT116 [4], in the test on Hela [5] and in the test on T2 HCC [6] was 0.001 to 1 µM throughout. The minimal effective concentration in the test on RPEMYC^H2B-GFP cells (setting [17]), with RPEMYC^H2B-GFP cells (read-out: Mitotic Arrest (≥5%)), in the test with NCI-N87 [15] and in the test on NCI-H23 [16] was 0.001 to 1 µM each time. In the test on RPEMYC^H2B-GFP cells, the IC50 was 1 to 1000 nM. In addition, the EC50 with NCI-N87 [7], in the test on NCI-H23 [8], in the test on MDA-MB-231 [9], in the test with SW480 [10], in the test with A549 [11] and with HCT116 [12] was 1 to 1000 nM throughout. The EC50 in the test with Hela [13] and in the test on T2 HCC [14] was 1 to 1000 nM in each case.
